In one assay the test system is HepG2.2.15 cells. The assay is described as follows: HBeAg secretion ELISA in HepG2.2.15 cells. Type of assay: cell-based. The note with it: 0.1, 1, 10, 100 μM. On the procedure:
3. Analysis of function of D-TTK001 on HBeAg secreation in liver cancer cells utilizing enzyme-linked immunosorbent assay (ELISA)
(i) Biosafety cabinet was ultraviolet sterilized for 30 min and purged for 30 min; DMEM/F12 (1:1) culture medium containing 15% fetal bovine serum, HepAD38 cells (or HepG2.2.15 cells) were taken out, sterilized with 75% alcohol, and placed in the biosafety cabinet.
(ii) Under aseptic conditions, discard old culture medium, add 3 mL 1×PBS each time, wash twice, add 1 mL 0.25% trypsin, the cells were digested until cell rounding as observed in microscope. Add 5 mL culture medium, dispense cells, count with hemocytometer, and dilute with culture medium to a cell number of 1˜2×10^4 cells/mL.
(iii) Plating 96-well plate. Under aseptic conditions, discard old culture medium, add 3 mL 1×PBS each time, wash twice, add 1 mL 0.05% trypsin, the cells were digested until cell rounding as observed in microscope. Add 10 mL culture medium, dispense cells, count with hemocytometer, and dilute with DMEM/F12(1:1) culture medium, add 100 μL cell suspension into each well to a cell number of 1˜2×10^3 cells/mL. […]
(x) Stopping: add 50 μL of stop solution into each well, gently shake and mix, measure the result in ten minutes. Set wavelength of microplate reader to 450 nm, measure OD value for each well after zero setting with blank wells.

The subject of another assay is HBV transgenic mice. Nature of the assay: Pathological observation of liver tissue of HBV transgenic mice. The note with it: 5 mg/kg, tail intravenous injection, 3 weeks treatment. Type of assay: in vivo. As to the method:
Prepare D-TTK001 aseptically. Administer 2.5 mg/kg (10 mice) or 5.0 mg/kg (42 mice) based on mice weight through tail intravenous injection in a volume of 50 μL. Administer 50 μL of sterile PBS to blank control group (10 mice). Mice are 6-8 months old, half male and half female. Inject daily for 3 weeks (21 days in total). Take artery blood from mice tail before administration for future measurement of HBV DNA content in mice blood, record as T0 group. Take artery blood from mice tail after one week (T1+ group), two weeks (T2+ group), and three weeks (T3+ group) of administration. Take blood after one week of stopping administration (T4 group). Blood samples were standed in room temperature for 2-4 hours to prepare serum. Store samples in −80° C. refrigerator for future measurement of HBV DNA content in mice blood.
After above experiments on HBV transgenic mice were finished, mice were sacrificed, and liver tissue was taken, fixed with formalin, embed with conventional method, to prepare tissue biopsies, pathological observation was then conducted.

Another assay relates to HepAD38 cells. Nature of the assay: MTT assay, proliferation of HepAD38 cells. The class given is cell-based. The note with it: 0.1, 1, 10, 100 μM, 48 hrs. On the procedure:
(1) Plating cells: suspend HepAD38 cells at exponential phase in RPMI1640 medium with 10% FBS, and plate 4000-5000 cells in a 96-well plate with 100 μL per well.
(2) Culturing cells: within 12 hrs. for adhesion of cultured cells, add different concentrations of synthesized D-TTK001 (or L-TTK001) polypeptides from Example 1 (0.1 μM, 1 μM, 10 μM and 100 μM) into 8 wells for each concentration, and incubate for 48 hrs. in common condition.
(3) Coloration: add 20 μL of MTT solution (5 mg/mL MTT in PBS buffer (pH7.4)) for each well.
(4) Incubate for 4 hrs., and carefully aspirate off the supernatant from the wells. Add 150 μL of DMSO into each well, shake for 10 min until the crystals were dissolved.
(5) Comparison: Read in an ELISA reader at 490 nm to measure the absorbance for each well. Results were calculated using Student's t-test.
For orientation: Tetrazolium assays rely on reduction of a dye to a coloured formazan, in cell work by metabolically active cells.

The next assay addresses T1, HBx protein (Hepatitis B virus genotype D subtype ayw, UniProt P03165).
T1 construct: made in house
The assay is described as follows: In vitro binding to recombinantly expressed HBx protein, Biacore 3000. On the procedure: The recombinant plasmid (pET-30a-HBx) expressing HBx gene was self-constructed and preserved (Zhang H, et al. J Biomed Biotechnol, doi:10.1155/2009/289068), and then expression and purification of HBx were conducted according to above reference for the measurement of in vitro binding ability. Biacore 3000 biomolecular interaction analyzing unit (manufactured by GE Healthcare) was utilized to measure in vitro binding ability of polypeptide D-TTK001 to recombinantly expressed HBx protein. Polypeptide at different concentrations were injected for 180 seconds at a rate of 30 μL/min. In dissociation stage, HBS-EP buffer was injected for 900 seconds at a rate of 30 μL/min, then at a rate of 30 μL/min, 2 shots of 1 mM NaOH were injected for 20 seconds to regenerate the chip. All signals were calibrated using channel 1 as the reference channel. Binding measurement was conducted twice, respectively, wherein in the first measurement, HBX was injected into the channel of the coupled polypeptide and the blank channel at concentrations of 0 nM, 10 nM, 50 nM, 100 nM, 500 nM and 600 nM, respectively. Binding time was 180 seconds and dissociation time was 400 seconds. On chip surface, 1 mM NaOH was injected for 20 seconds at a rate of 30 μL/min for regeneration. In the second measurement, HBX was injected into the channel of coupled polypeptide and the blank channel at concentrations of 0 nM, 10 nM, 50 nM, 588 nM, 1 μM, and 2 μM, respectively. Binding time was 180 seconds and dissociation time was 400 seconds. On chip surface, 1 mM NaOH was injected for 20 seconds at a rate of 30 μL/min for regeneration. Results were kinetically analyzed by BIA Evaluation Software.
On the technique in general: Surface plasmon resonance follows binding to a sensor surface in real time, without labels.

Broadly, the Kd is the concentration at which binding is half-saturated.

Where “and” joins values, the source holds several entries; their conditions need not be identical. Equal values may be shown once. Marks after values point to notes of the source that are not given here. Non-standard residues stand in square brackets, D forms with d. Residues, ends and D or L forms follow the SMILES beside them.

T1 sequence (P03165 whole entry): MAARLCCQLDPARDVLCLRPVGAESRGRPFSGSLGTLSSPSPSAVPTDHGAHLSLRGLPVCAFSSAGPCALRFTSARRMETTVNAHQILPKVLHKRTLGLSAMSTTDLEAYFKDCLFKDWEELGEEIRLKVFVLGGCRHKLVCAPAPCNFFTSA

Turning to `CSCC[C@@H](NC(=O)[C@H](NC(=O)[C@@H](C)NC(=O)[C@@H](CO)NC(=O)CN)C(C)C)C(=O)N[C@H](Cc1ccccc1)C(=O)N[C@H](CO)C(=O)N[C@H](CO)C(=O)N[C@H](CCCCN)C(=O)N[C@H](CCC(=O)O)C(=O)N[C@H](CCCNC(=N)N)C(=O)NCC(=O)O` [D-TTK001, Gly-D-Ser-D-Ala-D-Val-D-Met-D-Phe-D-Ser-D-Ser-D-Lys-D-Glu-D-Arg-Gly] (H-G[dS][dA][dV][dM][dF][dS][dS][dK][dE][dR]G-OH; N-terminus and C-terminus assumed), in the assay with HepG2.2.15 cells, the “Minimum effective dose on HBeAg secretion levels” value worked out at 0.1 µM. Besides, the “ballooning degeneration of hepatocytes in liver tissue” value in the assay with HBV transgenic mice is listed as “none of 6 mice in experimental group showed ballooning degeneration of hepatocytes”. For the same compound, in the assay with HepAD38 cells, the “Minimum effective dose on growth and proliferation (MTT)” value was found to be 10 µM. For the same compound, the dissociation constant (Kd) at HBx protein (KD, Biacore 3000, first and second measurement) was 29.9 nM and 40.3 nM; at HBx protein (in vitro binding to HBx, in vitro binding analysis results), 35 nM. At HBx protein (comparison in words), the “in vitro binding to HBx compared with L-polypeptide anti-HBxP1#” value is on record as “lower than that of L-polypeptide anti-HBxP1#”.
